Measured values taken from BindingDB's records for doi:10.1074/jbc.M112.443390 (The Ohio State University, 2013).

Key:
Gag-Pol polyprotein [1] = target: T1, Gag-Pol polyprotein (Human immunodeficiency virus type 1 group M subtype B (isolate NY5), UniProt P12497); assay: 3'-Processing Assay
Excerpt: (§1) A recently reported time-resolved fluorescence assay [J. Biol. Chem. 287: 21189-21203] was used to quantify IN 3'-processing and strand transfer activities.

[2] = target: T2, Gag-Pol polyprotein [A1275T] (Human immunodeficiency virus type 1 group M subtype B (isolate NY5), UniProt P12497, A1275T); assay: 3'-Processing Assay
Excerpt: as §1

Gag-Pol polyprotein [3] = target: T1, Gag-Pol polyprotein; assay: Strand Trasnfer Assay
Excerpt: as §1

[4] = target: T2, Gag-Pol polyprotein [A1275T]; assay: Strand Trasnfer Assay
Excerpt: as §1

| Compound | IC50 (Gag-Pol polyprotein [1]) | IC50 [2] | IC50 (Gag-Pol polyprotein [3]) | IC50 [4] |
| --- | --- | --- | --- | --- |
| CO[C@H](C(=O)O)c1c(C)nc2ccc(Br)cc2c1-c1ccc(Cl)cc1 | 910 nM | 261000 nM | 400 nM | 4610 nM |
| Cc1nc2ccc(Br)cc2c(-c2ccc(Cl)cc2)c1C(OC(C)(C)C)C(=O)O (stereo not drawn) [ALLINI-2] | 180 nM | 200000 nM | 170 nM | 890 nM |
